Data: patent US8993606B2, “Oral formulations for treating metal overload” (FerroKin BioSciences, Inc., priority 2011, dated 2015)

Assays:
iron = assay: Pharmacodynamics: iron in 24-hour urine; format: in vivo, human
Description: Urine was collected for 24 hours following administration of Compound 1. […] In other studies, a more sensitive urinary iron assay was employed (LLOQ 10 μg/dL).

[1] = tested on: patients with transfusional iron overload; assay: Example 11: efficacy study, R2 liver iron concentration per FerriScan MRI (text: mg/g liver dw); format: in vivo, human
Description: The goal of this experiment was to: 1. evaluate the safety and tolerability based on clinical assessments of two doses (16 and 32 mg/kg/d) of Compound 1 when administered daily for 24 weeks to patients with transfusional iron overload; 2. identify a differential response between dose groups in liver iron concentration determined by magnetic resonance imaging (MRI) after 24 weeks of dosing; and 3. assess the safety and efficacy activity of Compound 1 when administered daily for up to 96 weeks.
This experiment is an open-label, randomized study of two dose levels (16 and 32 mg/kg/d) of Compound 1 administered once daily for 24 weeks to eligible patients with transfusional iron overload requiring chelation therapy, with a dosing extension of 72 additional weeks.
Patients were assigned to one of two strate: “high” or “low” transfusion burden based on the average iron intake of the six transfusion sessions. Patients within each transfusion burden groups were randomized to one of two Compound 1 treatment arms: 16 mg/kg/d (16 mpk) or 32 mg/kg/d (32 mpk). The stratification followed by randomization to treatment arms helps to ensure an equal distribution of patients with “high” and “low” transfusion burdens to the high or low dose of Compound 1. Each treatment arm received one dose of Compound 1 daily for 24 weeks.
At the conclusion of the 24 week dosing period, patients who qualify and consent to continue treatment continued for an additional 72 weeks of Compound 1 dosing.
The inclusion of 25 patients in each treatment group provided a statistical power of 0.80 to detect, within 6 months, an LIC difference (normalized for initial LIC) of 3 mg/g dry weight between the two dose groups as determined by MRI. Baseline characteristics between dose groups were compared using Fisher extract test or Wilcoxon rank sum test as appropriate. The change in baseline to week 12, 24, and 72 values for all pharmacodynamics parameters were analyzed by an ANCOVA model with main effect for treatment group with baselines value for the corresponding parameters and transfusion burdon (iron input) during the study and baseline liver iron concentration as covariates comparing the two active treatment groups. T2* values were natural log transformed and summarized as the geometric mean (the antilog of the mean of the log data) plus or minus the co-efficient of variation (CV) defined as square root of eMSE where MSE is defined as the mean square error and subject to ANCOVA setting the p value as the threshold for statistical significance at 0.05 (confidence level of 95%).
Conducted was a multicenter, randomized, open-label study of adult subjects with documented transfusional iron overload in need of chelation therapy. Transfusional iron overload was defined as LIC by R2 (FerriScan®) magnetic resonance imaging (MRI)≧3.5 mg/g liver dw or serum ferritin>500 ng/mL. Subjects received investigational product for 24 weeks with an extension of 72 weeks for the evaluation of long-term safety and efficacy. The 24-week and 48-week pharmacodynamics results are described in this section. A total of 51 subjects enrolled and 49 completed the initial 24-week treatment period.

[2] = randomized to 16 mg/kg/d, dose adjustments after week 24
[3] = randomized to 32 mg/kg/d, dose adjustments after week 24

With `COCCOCCOCCOc1cccc(C2=N[C@@](C)(C(=O)O)CS2)c1O` [Compound 1, (S)-4,5-Dihydro-2-[2-hydroxy-3-(3,6,9-trioxadecyloxy)phenyl]-4-methyl-4-thiazolecarboxylate magnesium hydroxide] the “iron in 24 hour urine” value (iron; all doses, LLOQ of iron approximately 195 μg/dL) was “no detectable iron”, the “iron in urine, more sensitive assay” value (iron; other studies, LLOQ 10 μg/dL, no dose-dependent trends) was “Iron was detected in the urine of all subjects” and the “R2 LIC Change from Baseline to Week 12, Mean (SD)” value ([1]; 16 mg/kg/d) was 2.68 (4.050). The “R2 LIC Change from Baseline to Week 12, Median” value ([1]; 16 mg/kg/d) was 0.90, the “R2 LIC Change from Baseline to Week 24, Mean (SD)” value ([1]; 16 mg/kg/d) was 3.08 (5.552) and the “R2 LIC Change from Baseline to Week 24, Median” value ([1]; 16 mg/kg/d) was 1.10. For the same compound, the “R2 LIC Week 12, Mean (SD)” value ([1]; 16 mg/kg/d) was 15.90 (9.446), the “R2 LIC Week 12, Median” value ([1]; 16 mg/kg/d) was 11.70 and the “R2 LIC Week 24, Mean (SD)” value ([1]; 16 mg/kg/d) was 16.31 (10.570). The “R2 LIC Week 24, Median” value ([1]; 16 mg/kg/d) was 11.50, the “R2 LIC Change from Baseline to Week 12, Mean (SD)” value ([1]; 32 mg/kg/d) was −0.22 (2.827) and the “R2 LIC Change from Baseline to Week 12, Median” value ([1]; 32 mg/kg/d) was 0.10. The “R2 LIC Change from Baseline to Week 24, Mean (SD)” value ([1]; 32 mg/kg/d) was −0.27 (4.950), the “R2 LIC Change from Baseline to Week 24, Median” value ([1]; 32 mg/kg/d) was 0.20 and the “R2 LIC Week 12, Mean (SD)” value ([1]; 32 mg/kg/d) was 13.59 (8.684). The “R2 LIC Week 12, Median” value ([1]; 32 mg/kg/d) was 10.70, the “R2 LIC Week 24, Mean (SD)” value ([1]; 32 mg/kg/d) was 13.25 (8.510) and the “R2 LIC Week 24, Median” value ([1]; 32 mg/kg/d) was 9.30. The “LIC from baseline to Weeks 12 and 24” value ([1]; 16 mpk) was “statistically significant increase”, the “LIC from baseline at the first 24 weeks” value ([1]; 32 mpk) was “remained relatively unchanged” and the “R2 LIC Change from Baseline to Week 12, Mean (SD)” value ([1]; Total (both dose groups)) was 1.20 (3.740). The “R2 LIC Change from Baseline to Week 12, Median” value ([1]; Total (both dose groups)) was 0.70, the “R2 LIC Change from Baseline to Week 24, Mean (SD)” value ([1]; Total (both dose groups)) was 1.37 (5.467) and the “R2 LIC Change from Baseline to Week 24, Median” value ([1]; Total (both dose groups)) was 0.50. For the same compound, the “R2 LIC Change from Baseline to Week 48, Mean (SD)” value ([1]; Total (both dose groups)) was −0.63 (3.632), the “R2 LIC Change from Baseline to Week 48, Median” value ([1]; Total (both dose groups)) was −0.20 and the “R2 LIC Change from Baseline to Week 72, Mean (SD)” value ([1]; Total (both dose groups)) was −0.69 (4.975). For the same compound, the “R2 LIC Change from Baseline to Week 72, Median” value ([1]; Total (both dose groups)) was −0.80, the “R2 LIC Week 12, Mean (SD)” value ([1]; Total (both dose groups)) was 14.72 (9.046) and the “R2 LIC Week 12, Median” value ([1]; Total (both dose groups)) was 11.10. For the same compound, the “R2 LIC Week 24, Mean (SD)” value ([1]; Total (both dose groups)) was 14.75 (9.599), the “R2 LIC Week 24, Median” value ([1]; Total (both dose groups)) was 11.00 and the “R2 LIC Week 48, Mean (SD)” value ([1]; Total (both dose groups)) was 11.74 (7.813). For the same compound, the “R2 LIC Week 48, Median” value ([1]; Total (both dose groups)) was 8.80, the “R2 LIC Week 72, Mean (SD)” value ([1]; Total (both dose groups)) was 11.31 (7.904) and the “R2 LIC Week 72, Median” value ([1]; Total (both dose groups)) was 8.70. For the same compound, the “mean change from baseline LIC” value ([1]; Week 48, 19 subjects randomized to 16 mg/kg/day) was 0.1 mg/g, the “mean change from baseline LIC” value ([1]; Week 48, 20 subjects originally randomized to 32 mg/kg/day) was -1.3 mg/g and the “difference in the mean change from baseline between treatment groups” value ([1]; at 24 weeks, p<0.03) was 3.4 mg/g. For the same compound, the “dose-response in iron chelating capacity” value ([1]; between 16 and 32 mpk, first 24-weeks) was “clear dose-response”, the “LIC from Week 24” value ([1]; doses of 32 mpk and greater) was “reduction in LIC” and the “subjects with lower LIC at 24 weeks compared to Baseline” value ([1]; high dose group (32 mg/kg/day)) was 11 of 25. The “mean change in LIC” value ([1]; high dose group (32 mg/kg/day), 24 weeks) was −0.3 mg/g liver (dw), the “subjects with lower LIC at 24 weeks compared with Baseline” value ([1]; low dose group (16 mg/kg/day)) was 7 of 24 and the “mean change in LIC (net gain)” value ([1]; low dose group (16 mg/kg/day), 24 weeks) was 3.1 mg/g liver (dw). The “R2 LIC Change from Baseline to Week 48, Mean (SD)” value [1, 2] was 0.09 (4.015), the “R2 LIC Change from Baseline to Week 48, Median” value [1, 2] was 0.00 and the “R2 LIC Change from Baseline to Week 72, Mean (SD)” value [1, 2] was 0.52 (3.654). For the same compound, the “R2 LIC Change from Baseline to Week 72, Median” value [1, 2] was 0.50, the “R2 LIC Week 48, Mean (SD)” value [1, 2] was 11.68 (6.369) and the “R2 LIC Week 48, Median” value [1, 2] was 9.30. For the same compound, the “R2 LIC Week 72, Mean (SD)” value [1, 2] was 10.74 (6.373), the “R2 LIC Week 72, Median” value [1, 2] was 9.40 and the “R2 LIC Change from Baseline to Week 48, Mean (SD)” value [1, 3] was −1.32 (3.177). For the same compound, the “R2 LIC Change from Baseline to Week 48, Median” value [1, 3] was −0.90, the “R2 LIC Change from Baseline to Week 72, Mean (SD)” value [1, 3] was −1.83 (5.853) and the “R2 LIC Change from Baseline to Week 72, Median” value [1, 3] was −1.80. The “R2 LIC Week 48, Mean (SD)” value [1, 3] was 11.81 (9.145), the “R2 LIC Week 48, Median” value [1, 3] was 7.70 and the “R2 LIC Week 72, Mean (SD)” value [1, 3] was 11.84 (9.307). The “R2 LIC Week 72, Median” value [1, 3] was 8.70.
